Drawing on ChEMBL document CHEMBL3639362, “Pyrrolopyrazoles, potent kinase inhibitors” (2013), this text covers EC50 for 1 molecule.

Each structure is given as a SMILES string. Some results are limits rather than exact numbers.

In this assay the target is Serine/threonine-protein kinase PAK 4 (Homo sapiens, UniProt O96013). Kind of assay: Enzymatic Assay: The enzymatic activity of PAK4 KD was measured by its ability to catalyzed the transfer of a phosphate residue from a nucleoside triphosphate to an amino acid side chain of a commercially available peptide (amino acid sequence EVPRRKSLVGTPYWM).
Serine/threonine-protein kinase PAK 4, sequence (O96013 whole entry): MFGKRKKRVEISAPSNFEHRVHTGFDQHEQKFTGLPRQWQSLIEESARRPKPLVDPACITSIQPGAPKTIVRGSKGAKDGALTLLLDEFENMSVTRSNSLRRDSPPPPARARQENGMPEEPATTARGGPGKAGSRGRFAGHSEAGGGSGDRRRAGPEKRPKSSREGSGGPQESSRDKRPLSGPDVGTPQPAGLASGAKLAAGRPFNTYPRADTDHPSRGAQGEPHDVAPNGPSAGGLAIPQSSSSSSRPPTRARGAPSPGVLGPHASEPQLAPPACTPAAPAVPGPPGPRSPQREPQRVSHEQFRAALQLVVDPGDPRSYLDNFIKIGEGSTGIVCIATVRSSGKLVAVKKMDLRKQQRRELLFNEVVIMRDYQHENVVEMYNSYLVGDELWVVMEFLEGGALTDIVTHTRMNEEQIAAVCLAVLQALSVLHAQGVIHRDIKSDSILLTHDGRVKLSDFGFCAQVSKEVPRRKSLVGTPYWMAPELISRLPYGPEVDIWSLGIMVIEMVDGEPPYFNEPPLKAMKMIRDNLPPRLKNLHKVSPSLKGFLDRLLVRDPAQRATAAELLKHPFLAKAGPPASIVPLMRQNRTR

One may read the EC50 as the midpoint of the concentration-response curve. As to `CC1(C)c2n[nH]c(Nc3nc(Cl)nc(N4CCC[C@H]4C(N)=O)n3)c2CN1C(=O)NC1C[C@@H]1c1ccccc1` (stereo partly specified), the concentration giving a half-maximal response (EC50) is more than 4 µM.
